The source of these data is publication PMC6222544, “Fragment-Based Lead Generation of 5-Phenyl-1H-pyrazole-3-carboxamide Derivatives as Leads for Potent Factor Xia Inhibitors” (Molecules : A Journal of Synthetic Chemistry and Natural …, 2018).

The target in data set [1] is T1, human FXIa (Homo sapiens, UniProt P03951).
T1 construct: purchased Haematologic Technologies, Essex Junction, VT, USA
The experiment in a line: Inhibition of FXIa in vitro (chromogenic substrate assay). In kind it is biochemical. The method, then: The negative controlwas composed of the same mixed solutions except replacing test compound with DMSO. […] The IC50 was calculated by IBM SPSS Statistics 22.0 (IBM Inc., North Castle, NY, USA) and the Probit function in it. IC50 values were converted to Ki values by the followingrelationship:Ki = IC50/(1 + [S]/Km)

Data set [2] has as its system rabbit plasma. The experiment in a line: aPTT in vitro coagulation assay. In kind it is biochemical. The settings on record: incubated 3 min at 37 °C. The method, then: A commercially available automatic Coagulation analyzer (Steellex Science Instrument Co., Ltd., Beijing, China) was employed to measure aPTT. The clotting times were also measured using the instrument itself, in accordance with the manufacturer’s instructions. Increasing concentrations of inhibitor or solvent were added to rabbit (Beijing Longan Experimental Animal Breeding Center, SCXK(Jing)2016-0006, Beijing, China) plasma and incubated for 3 min at 37 °C. APTT was determined by automatic Coagulation analyzer.

Data set [3] has as its target FXIa. Particulars: representative FXIa inhibitors, Figure 1; cited from earlier work.
Where [4] appears, read: Table 1 values, read-out: FXIa inhibitory potency (Ki).
Setting [5] is: human FXIa, chromogenic substrate BIOPHEN CS-21(66), 37 °C, pH 7.4, Ki = IC50/(1 + [S]/Km), read-out: Ki.

Like-named read-outs stand apart in the source and are kept apart here.

T1 sequence (P03951 388-625 limits assumed): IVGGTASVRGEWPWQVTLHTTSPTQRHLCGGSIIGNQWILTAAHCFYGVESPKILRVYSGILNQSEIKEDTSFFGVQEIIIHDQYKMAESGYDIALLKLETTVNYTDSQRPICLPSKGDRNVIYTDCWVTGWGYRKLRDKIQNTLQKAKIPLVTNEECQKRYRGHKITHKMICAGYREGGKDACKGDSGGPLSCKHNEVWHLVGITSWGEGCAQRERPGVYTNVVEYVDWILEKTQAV
T1 sequence (P03951 19-387 partner limits assumed): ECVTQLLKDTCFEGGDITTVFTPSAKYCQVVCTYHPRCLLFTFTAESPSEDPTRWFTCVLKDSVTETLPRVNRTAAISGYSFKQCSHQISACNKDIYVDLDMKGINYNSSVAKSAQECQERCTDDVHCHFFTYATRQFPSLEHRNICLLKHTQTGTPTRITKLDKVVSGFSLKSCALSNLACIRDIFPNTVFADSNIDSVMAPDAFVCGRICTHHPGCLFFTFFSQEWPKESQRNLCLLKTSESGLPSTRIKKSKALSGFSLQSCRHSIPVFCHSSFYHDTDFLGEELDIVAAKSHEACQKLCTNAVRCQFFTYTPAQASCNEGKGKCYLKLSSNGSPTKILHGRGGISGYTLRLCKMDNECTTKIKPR

As a reminder, the Ki is the dissociation constant of the complex between target and ligand, obtained from inhibition or displacement. As for `NC[C@H]1CC[C@H](C(=O)NC(Cc2ccccc2)c2ncc(-c3ccc4c(N)n[nH]c4c3)[nH]2)CC1` (stereo partly drawn) [Compound 4, reference compound], the Ki in data set [1] (setting [4]) and in data set [1] (setting [5]) was 0.0235 µM each time. Further, in data set [2], the “1.5× aPTT (μM) (Rabbit)” value is 3.79 µM.
Regarding `CC1CC1C(=O)Nc1ccc(C[C@H](NC(=O)c2cc(-c3cccc(Cl)c3F)[nH]n2)C(=O)Nc2ccc3[nH]c(C(=O)O)cc3c2)cc1` (stereo partly drawn) [Compound 7za, 5-((2S)-2-(5-(3-Chloro-2-fluorophenyl)-1H-pyrazole-3-carboxamido)-3-(4-(2-methylcyclopropane-carboxamido)phenyl)propanamido)-1H-indole-2-carboxylic acid], in data set [2], the “1.5× aPTT (μM) (Rabbit)” value amounted to 43.33 µM.
The term melting point denotes the temperature, or range, at which the solid turns liquid. For the compound `O=C(O)c1ccc(NC(=O)[C@H](Cc2ccccc2)NC(=O)c2cc(-c3c(F)ccc(Cl)c3F)[nH]n2)cc1` [Compound 7k, (S)-4-(2-(5-(3-Chloro-2,6-difluorophenyl)-1H-pyrazole-3-carboxamido)-3-phenylpropanamido)benzoicacid], the melting point was 129 to 131 °C (dec.). For the same compound, the Ki in data set [1] (setting [5]) was 28.9 µM.
Take `O=C(O)c1ccc(NC(=O)[C@H](Cc2ccccc2)NC(=O)c2cc(-c3cc(Cl)ccc3F)[nH]n2)cc1` [Compound 7h, (S)-4-(2-(5-(5-Chloro-2-fluorophenyl)-1H-pyrazole-3-carboxamido)-3-phenylpropanamido)benzoic acid]: the melting point was 179 to 181 °C (dec.). Further, the Ki in data set [1] (setting [5]) is over 84.5 µM.
In the same order, the values of `O=C(O)c1cc2cc(NC(=O)[C@H](Cc3ccccc3)NC(=O)c3cc(-c4c(F)ccc(Cl)c4F)n[nH]3)ccc2[nH]1` [Compound 7p, (S)-5-(2-(3-(3-Chloro-2,6-difluorophenyl)-1H-pyrazole-5-carboxamido)-3-phenylpropanamido)-1H-indole-2-carboxylic acid] are 164 to 166 °C (dec.) and 8.4 µM.
Take `O=C(O)c1cc2cc(NC(=O)[C@H](Cc3ccccc3)NC(=O)c3cc(-c4cccc(Cl)c4F)n[nH]3)ccc2[nH]1` [Compound 7o, (S)-5-(2-(3-(3-Chloro-2-fluorophenyl)-1H-pyrazole-5-carboxamido)-3-phenylpropanamido)-1H-indole-2-carboxylic acid]: the melting point is 172 to 174 °C (dec.). For the same compound, the Ki in data set [1] (setting [4]) came out at 1.97 µM.
Take `COC1CCN(c2cccc3c2CCN(C(=O)c2cc(-c4cccc(Cl)c4)[nH]n2)[C@@H]3C(=O)Nc2ccc(C(=O)O)cc2)CC1` [Compound 2]: the Ki in data set [3] was 0.0185 µM.
For the compound `O=C(O)c1cc2cc(NC(=O)[C@H](CC(=O)N3CCOCC3)NC(=O)c3cc(-c4cccc(Cl)c4F)n[nH]3)ccc2[nH]1` [Compound 7y, (S)-5-(2-(3-(3-Chloro-2-fluorophenyl)-1H-pyrazole-5-carboxamido)-4-morpholino-4-oxobutanamido)-1H-indole-2-carboxylic acid], the melting point is 175 to 177 °C (dec.). Besides, the inhibition constant (Ki) in data set [1] (setting [4]) was 64 µM.
In the case of `O=C(O)c1ccc(NC(=O)[C@H](Cc2ccccc2)NC(=O)c2cc(-c3c(F)cccc3Cl)[nH]n2)cc1` [Compound 7i, (S)-4-(2-(5-(2-Chloro-6-fluorophenyl)-1H-pyrazole-3-carboxamido)-3-phenylpropanamido)benzoic acid], the melting point was 203 to 205 °C (dec.). For the same compound, the Ki in data set [1] (setting [5]) is over 84.5 µM.
As to `CN1CCN(C(=O)Nc2ccc(C[C@H](NC(=O)c3cc(-c4cccc(Cl)c4F)[nH]n3)C(=O)Nc3ccc4[nH]c(C(=O)O)cc4c3)cc2)CC1` [Compound 7zb, (S)-5-(2-(5-(3-Chloro-2-fluorophenyl)-1H-pyrazole-3-carboxamido)-3-(4-(4-methylpiperazine-1-carboxamido)phenyl)propanamido)-1H-indole-2-carboxylic acid], the melting point is 203 to 205 °C (dec.). Also, the Ki in data set [1] (setting [5]) is 1.94 µM.
In the same order, the values of `O=C(O)c1ccc(NC(=O)[C@H](Cc2ccccc2)NC(=O)c2cc(-c3ccc(Cl)cc3)[nH]n2)cc1` [Compound 7e, (S)-4-(2-(5-(4-Chlorophenyl)-1H-pyrazole-3-carboxamido)-3-phenylpropanamido)benzoic acid] are 174 to 176 °C (dec.) and over 84.5 µM.
